Experiments:
C/EBPα mRNA [1] = experiment: Analysis of gene expression in vivo in C57BL/6J mice, C/EBPα; settings: B6 mice, 3 doses of 1 nmol via tail vein
Method: (§1) Relative gene expression analysis by qPCR in vitro. For analyzing gene activation and protein expression, PANC-1 cells were seeded in duplicate into 24-well plates at a density of 1×10^5 cells per well. tTR14 or control aptamer (IRRE) conjugated to C/EBPα-saRNAs were added directly to the cells, at a final concentration of 100 nM or 200 nM. The treatment was repeated 24 h later and cells were harvested at final incubation times of 48 or 72 h. Total RNA was extracted for reverse transcription using an RNeasy kit (Qiagen). Target cDNA amplification and real-time PCR was performed using a Bio-rad kit (SsoAdvanced™ Universal SYBR® Green Supermix). For normalization, the reference gene 18S was used. To determine gene expression in vivo samples, total RNA was extracted for reverse transcription (QuantiFast® Reverse transcription, Qiagen) and target cDNA was amplified using real-time PCR (QuantiFast® SYBR®Green Master mix). The cDNA probes used were purchased as prevalidated QuantiTect® SYBR probes from Qiagen. Real-time PCR was performed with validated QuantiTect® SYBR probes (Qiagen) or validated FAM probes (Applied Biosystems).
(§2) Analysis of gene expression in vivo. Female or male at 6 week C57BL/6J mice were purchased from the Jackson laboratory for three conjugates; TC, TCT, and TCUT. […]

p21 mRNA = experiment: Relative gene expression by qPCR in vitro, p21; format: cell-based, human
Method: as §1

C/EBPα mRNA [2] = experiment: Relative gene expression by qPCR in vitro, C/EBPα; format: cell-based, human
Method: as §1

PANC-1 cells = experiment: MTS assay, inhibition of cell proliferation; format: cell-based, human
Method: MTS assay. […] Cells were treated with tTR14-C/EBPα and […] at 100 nM or 200 nM twice at 24-h intervals.

PANC-Luc tumors = experiment: Liver-metastatic pancreatic cancer mouse model, combinational treatment with gemcitabine; format: in vivo, NOD/SCID mice; settings: conjugate 1 nmol 3 times/week I.P. combined with gemcitabine 50 mg/kg 2 times/week I.V., compared with PBS
Method: Intrahepatic pancreatic cancer liver-metastatic mouse model. To create an animal model harboring traceable tumors, a firefly luciferase fragment was inserted into the pLKO.1-AS3 backbone encoding the neo gene (National RNAi Core, Academia Sinica, Taiwan). One day before transduction, 293T cells were plated onto a 6-well plate. On the day of transduction, the medium was replaced with DMEM containing serial dilutions of the transfer plasmids and incubated for 5 h, then the medium was replaced. After two days, the culture medium containing recombinant lentiviral particles was obtained. PANC-1 cells were incubated with recombinant lentiviral particles for 24 h. […] Luciferase expression was assessed using the Luciferase Assay System. […] For the combinational treatment with gemcitabine, tumors were allowed to grow for 2 weeks after inoculation until they could be detected using an IVIS system, then mice were randomly divided into five groups of 10 animals/group. […] Tumor growth was monitored by evaluating bioluminescence using an IVIS 200 in vivo imaging platform (Caliper Life Sciences, Alameda, Calif.) and measuring the difference from before the first injection and one day after the last injection. […] The mice were imaged using the IVIS 200 and bioluminescent signals were analyzed using Living Image Software (Caliper Life Sciences, Alameda, Calif.). […]

albumin mRNA = experiment: Analysis of gene expression in vivo in C57BL/6J mice, albumin; settings: B6 mice, 3 doses of 1 nmol via tail vein, tissue harvesting on day 8
Method: as §1, §2

[3] = PANC-1, 100 nM, 48 or 72 h (FIG. 7)
[4] = PANC-1, 72 h, 100 nM, compared to IRRE control group (FIG. 3)

TCUT: TR14 ST1-3 with CEBPA sense, a 10-uracil spacer and albumin affinity tag (UUUAUUCACAUUUUUGAAUUGAGCGGUCAUUGUCACUGGUCUUUUUUUUUUUUN; listed as RNA, chemistry not given here)
mRNA levels of C/EBPα in brain tissue (C/EBPα mRNA [1]; tissue harvesting on day 8): no upregulation | mRNA levels of C/EBPα in liver (C/EBPα mRNA [1]; tissue harvesting on day 8, compared to untreated group): increased | upregulation of p21 (p21 mRNA; [3]): upregulation | mRNA expression of p21 (p21 mRNA; [4]): upregulation | upregulation of C/EBPα (C/EBPα mRNA [2]; [3]): upregulation | mRNA expression of C/EBPα (C/EBPα mRNA [2]; [4]): upregulation | cell proliferation by MTS assay (PANC-1 cells; [3]): inhibited the cancer cell proliferation | cell proliferation by MTS assay (PANC-1 cells; PANC-1, 72 h, compared to IRRE control group (FIG. 3)): inhibition of tumor cell proliferation | tumor burden by measuring photon increase (PANC-Luc tumors): significant reduction of tumor burden | albumin mRNA levels in liver (albumin mRNA): none increased

Source: patent US20220396794A1, “APTAMERS AGAINST TRANSFERRIN RECEPTOR (TfR)” (APTERNA LIMITED, priority 2019, published 2022)
